Assay [1] addresses Neuronal acetylcholine receptor; alpha3/beta2 (Rattus norvegicus) (UniProt P04757+P12390). In words: Antagonist activity at rat alpha3beta2 nAChR expressed in Xenopus laevis oocytes assessed as inhibition of Ach-induced response at -70 mV holding potential incubated for 5 mins by voltage-clamp assay relative to LvIA IC50. Format: cell-based. Particulars: Oocyte.
For assay [2], the target named is Neuronal acetylcholine receptor; alpha3/beta2 (Rattus norvegicus, UniProt P04757+P12390). In words: Antagonist activity at rat alpha3beta2 nAChR expressed in Xenopus laevis oocytes assessed as inhibition of Ach-induced response at -70 mV holding potential incubated for 5 mins by voltage-clamp assay. Format: cell-based, Oocyte.
Neuronal acetylcholine receptor; alpha3/beta2, sequence (P04757 whole entry): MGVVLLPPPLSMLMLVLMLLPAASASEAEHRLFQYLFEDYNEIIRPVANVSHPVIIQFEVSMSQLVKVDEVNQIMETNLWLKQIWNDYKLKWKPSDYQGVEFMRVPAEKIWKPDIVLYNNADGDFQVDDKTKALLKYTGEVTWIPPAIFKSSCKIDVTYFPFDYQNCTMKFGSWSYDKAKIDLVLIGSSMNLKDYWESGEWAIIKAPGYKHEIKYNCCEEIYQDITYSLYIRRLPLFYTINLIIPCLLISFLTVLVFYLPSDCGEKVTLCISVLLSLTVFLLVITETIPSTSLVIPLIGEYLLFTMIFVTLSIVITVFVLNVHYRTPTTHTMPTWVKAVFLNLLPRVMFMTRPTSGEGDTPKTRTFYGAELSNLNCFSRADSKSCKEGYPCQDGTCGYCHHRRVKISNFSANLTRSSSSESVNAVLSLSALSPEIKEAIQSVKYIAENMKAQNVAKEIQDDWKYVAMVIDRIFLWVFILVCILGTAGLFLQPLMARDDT
Neuronal acetylcholine receptor; alpha3/beta2, sequence (P12390 whole entry): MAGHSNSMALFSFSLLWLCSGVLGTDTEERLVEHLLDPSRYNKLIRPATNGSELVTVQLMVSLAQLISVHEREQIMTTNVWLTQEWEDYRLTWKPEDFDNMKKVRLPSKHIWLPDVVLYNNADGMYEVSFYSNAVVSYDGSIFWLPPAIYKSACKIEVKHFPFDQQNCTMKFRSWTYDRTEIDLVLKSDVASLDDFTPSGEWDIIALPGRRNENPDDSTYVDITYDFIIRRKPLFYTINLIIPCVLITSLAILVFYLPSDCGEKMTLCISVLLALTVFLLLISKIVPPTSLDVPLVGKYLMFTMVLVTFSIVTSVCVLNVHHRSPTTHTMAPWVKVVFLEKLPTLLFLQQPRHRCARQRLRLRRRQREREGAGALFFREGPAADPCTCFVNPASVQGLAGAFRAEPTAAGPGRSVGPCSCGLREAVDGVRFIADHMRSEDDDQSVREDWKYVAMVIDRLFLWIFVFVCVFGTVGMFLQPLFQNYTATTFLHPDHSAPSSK
The target in assay [3] is Neuronal acetylcholine receptor; alpha3/beta4 (Rattus norvegicus, UniProt P04757+P12392). In words: Antagonist activity at rat alpha3beta4 nAChR expressed in Xenopus laevis oocytes assessed as inhibition of Ach-induced response at -70 mV holding potential incubated for 5 mins by voltage-clamp assay. Format: cell-based, Oocyte.
Neuronal acetylcholine receptor; alpha3/beta4, sequence (P04757 whole entry): as the sequence (P04757 whole entry) above
Neuronal acetylcholine receptor; alpha3/beta4, sequence (P12392 whole entry): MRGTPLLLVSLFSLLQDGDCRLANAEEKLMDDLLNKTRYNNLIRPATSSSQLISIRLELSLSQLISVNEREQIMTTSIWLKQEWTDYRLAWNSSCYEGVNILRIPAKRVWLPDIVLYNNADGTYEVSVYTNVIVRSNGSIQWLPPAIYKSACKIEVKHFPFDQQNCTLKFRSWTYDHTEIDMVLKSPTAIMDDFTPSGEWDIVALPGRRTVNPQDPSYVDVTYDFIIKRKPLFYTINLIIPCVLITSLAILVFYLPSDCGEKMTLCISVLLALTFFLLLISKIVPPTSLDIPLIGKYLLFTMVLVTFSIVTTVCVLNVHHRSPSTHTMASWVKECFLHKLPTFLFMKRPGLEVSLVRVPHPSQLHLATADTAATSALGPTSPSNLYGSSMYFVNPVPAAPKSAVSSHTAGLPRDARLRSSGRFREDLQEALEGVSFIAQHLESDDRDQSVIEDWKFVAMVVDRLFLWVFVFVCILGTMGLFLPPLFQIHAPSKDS
In assay [4] the test system is Hi-5. The experiment in a line: Displacement of [125I]-alpha-bungarotoxin from Aplysia californica C-terminal His6-tagged N-terminal gp67 signal peptide-tagged acetylcholine receptor binding protein expressed in Hi5 insect cells preincubated for 3 hrs followed by [125I]-alpha-bungarotoxin measured after 5 mins by radioligand binding assay relative to LvIA IC50. Particulars: time 185.0 min.

The species named for assay [5] is Rattus norvegicus. The experiment in a line: Selectivity index, ratio of IC50 for rat alpha3beta4 nAChR expressed in Xenopus laevis oocytes to IC50 for rat alpha3beta2 nAChR expressed in Xenopus laevis oocytes. Format: cell-based.
For assay [6], the target named is Neuronal acetylcholine receptor; alpha3/beta4 (Rattus norvegicus) (UniProt P04757+P12392). In words: Antagonist activity at rat alpha3beta4 nAChR expressed in Xenopus laevis oocytes assessed as inhibition of Ach-induced response at -70 mV holding potential incubated for 5 mins by voltage-clamp assay relative to LvIA IC50. Particulars: Oocyte. Format: cell-based.

Assay [7] can be described thus: Displacement of [125I]-alpha-bungarotoxin from Aplysia californica C-terminal His6-tagged N-terminal gp67 signal peptide-tagged acetylcholine receptor binding protein expressed in Hi5 insect cells preincubated for 3 hrs followed by [125I]-alpha-bungarotoxin measured after 5 mins by radioligand binding assay.

By IC50 is commonly meant the concentration that gives 50% inhibition.

Where a SMILES comes first, the peptide text is derived from it. Bridges are numbered along the chain shown (N, C = ends).

In the case of `CC[C@H](C)[C@@H]1NC(=O)[C@H](CCC(=O)O)NC(=O)[C@@H]2CCCN2C(=O)[C@H](Cc2cnc[nH]2)NC(=O)[C@H](CC(=O)O)NC(=O)[C@H](C(C)C)NC(=O)[C@H](CC(N)=O)NC(=O)[C@@H]2CSSC[C@H](NC(=O)[C@H](C)N)C(=O)N[C@@H](CSSC[C@@H](C(N)=O)NC1=O)C(=O)N[C@@H](CO)C(=O)N[C@@H](Cc1cnc[nH]1)C(=O)N1CCC[C@H]1C(=O)N[C@@H](C)C(=O)N2` (H-ACCSHPACNVDHPEIC-NH2; disulfide 2-8, 3-16), the Ratio IC50 was found to be 24 in assay [1], 0.71 in assay [4], 2.6 in assay [5] and 3.4 in assay [6]. Moreover, the IC50 in assay [2] was 375 nM; in assay [3] it was 975 nM; in assay [7] it was 11800 nM.

As for `CC[C@H](C)[C@@H]1NC(=O)[C@H](CCC(=O)O)NC(=O)[C@@H]2CCCN2C(=O)[C@H](Cc2cnc[nH]2)NC(=O)[C@H](CC(=O)O)NC(=O)[C@H](C(C)C)NC(=O)[C@H](CC(N)=O)NC(=O)[C@@H]2CSSC[C@H](NC(=O)CN)C(=O)N[C@@H](CSSC[C@@H](C(N)=O)NC1=O)C(=O)N[C@@H](C)C(=O)N[C@@H](Cc1cnc[nH]1)C(=O)N1CCC[C@H]1C(=O)N[C@@H](C)C(=O)N2` (H-GCCAHPACNVDHPEIC-NH2; disulfide 2-8, 3-16), the Ratio IC50 in assay [1] is 3.5; in assay [4] it was -0.47; in assay [5] it was 3.6; in assay [6], 0.7. Also, the 50% inhibitory concentration (IC50) in assay [2] turned out to be 54 nM; in assay [3], 193 nM; in assay [7], 780 nM.

For the compound `CC[C@H](C)[C@@H]1NC(=O)[C@H](CCC(=O)O)NC(=O)[C@@H]2CCCN2C(=O)[C@H](Cc2cnc[nH]2)NC(=O)[C@H](CC(=O)O)NC(=O)[C@H](C(C)C)NC(=O)[C@H](CC(N)=O)NC(=O)[C@@H]2CSSC[C@H](NC(=O)CN)C(=O)N[C@@H](CSSC[C@@H](C(N)=O)NC1=O)C(=O)N[C@@H](CO)C(=O)N[C@@H](C)C(=O)N1CCC[C@H]1C(=O)N[C@@H](C)C(=O)N2` (H-GCCSAPACNVDHPEIC-NH2; disulfide 2-8, 3-16), the IC50 in assay [2] was greater than 10000 nM; in assay [3], greater than 10000 nM; in assay [7], 310000 nM. In addition, in assay [4], the Ratio IC50 came to 2.13.

For the compound `CC[C@H](C)[C@@H]1NC(=O)[C@H](CCC(=O)O)NC(=O)[C@@H]2CCCN2C(=O)[C@H](Cc2cnc[nH]2)NC(=O)[C@H](CC(=O)O)NC(=O)[C@H](C(C)C)NC(=O)[C@H](CC(N)=O)NC(=O)[C@@H]2CSSC[C@H](NC(=O)CN)C(=O)N[C@@H](CSSC[C@@H](C(N)=O)NC1=O)C(=O)N[C@@H](CO)C(=O)N[C@@H](Cc1cnc[nH]1)C(=O)N[C@@H](C)C(=O)N[C@@H](C)C(=O)N2` (H-GCCSHAACNVDHPEIC-NH2; disulfide 2-8, 3-16), the half-inhibitory concentration (IC50) in assay [2] was greater than 10000 nM; in assay [3], greater than 10000 nM; in assay [7], 34000 nM. Besides, the Ratio IC50 in assay [4] amounted to 1.17.

For `CC[C@H](C)[C@@H]1NC(=O)[C@H](CCC(=O)O)NC(=O)[C@@H]2CCCN2C(=O)[C@H](Cc2cnc[nH]2)NC(=O)[C@H](CC(=O)O)NC(=O)[C@H](C(C)C)NC(=O)[C@H](CC(=O)O)NC(=O)[C@@H]2CSSC[C@H](NC(=O)CN)C(=O)N[C@@H](CSSC[C@@H](C(N)=O)NC1=O)C(=O)N[C@@H](CO)C(=O)N[C@@H](Cc1cnc[nH]1)C(=O)N1CCC[C@H]1C(=O)N[C@@H](C)C(=O)N2` (H-GCCSHPACDVDHPEIC-NH2; disulfide 2-8, 3-16), the figures for the Ratio IC50 in assay [1] and in assay [6] were 0.24 and 7.1, respectively. Moreover, the IC50 in assay [2] and in assay [3] was greater than 10000 nM each time.

Take `CC[C@H](C)[C@@H]1NC(=O)[C@H](CCC(=O)O)NC(=O)[C@@H]2CCCN2C(=O)[C@H](Cc2cnc[nH]2)NC(=O)[C@H](CC(=O)O)NC(=O)[C@H](C(C)C)NC(=O)CNC(=O)[C@@H]2CSSC[C@H](NC(=O)CN)C(=O)N[C@@H](CSSC[C@@H](C(N)=O)NC1=O)C(=O)N[C@@H](CO)C(=O)N[C@@H](Cc1cnc[nH]1)C(=O)N1CCC[C@H]1C(=O)N[C@@H](C)C(=O)N2` (H-GCCSHPACGVDHPEIC-NH2; disulfide 2-8, 3-16): the Ratio IC50 stood at 0.48 in assay [1] and 19.2 in assay [6]. Moreover, the IC50 in assay [2] and in assay [3] was greater than 10000 nM each time.

For the compound `CC[C@H](C)[C@@H]1NC(=O)[C@H](CCC(=O)O)NC(=O)[C@@H]2CCCN2C(=O)[C@H](Cc2cnc[nH]2)NC(=O)[C@H](CC(=O)O)NC(=O)[C@H](C(C)C)NC(=O)[C@H]([C@@H](C)CC)NC(=O)[C@@H]2CSSC[C@H](NC(=O)CN)C(=O)N[C@@H](CSSC[C@@H](C(N)=O)NC1=O)C(=O)N[C@@H](CO)C(=O)N[C@@H](Cc1cnc[nH]1)C(=O)N1CCC[C@H]1C(=O)N[C@@H](C)C(=O)N2` (H-GCCSHPACIVDHPEIC-NH2; disulfide 2-8, 3-16), the Ratio IC50 in assay [1] came to 0.21; in assay [5] it was 742; in assay [6] it was 1.1. Also, the IC50 in assay [2] is 7.5 nM; in assay [3], 5560 nM.

Turning to `CC[C@H](C)[C@@H]1NC(=O)[C@H](CCC(=O)O)NC(=O)[C@@H]2CCCN2C(=O)[C@H](Cc2cnc[nH]2)NC(=O)[C@H](CC(=O)O)NC(=O)[C@H](C(C)C)NC(=O)[C@H](CCCCN)NC(=O)[C@@H]2CSSC[C@H](NC(=O)CN)C(=O)N[C@@H](CSSC[C@@H](C(N)=O)NC1=O)C(=O)N[C@@H](CO)C(=O)N[C@@H](Cc1cnc[nH]1)C(=O)N1CCC[C@H]1C(=O)N[C@@H](C)C(=O)N2` (H-GCCSHPACKVDHPEIC-NH2; disulfide 2-8, 3-16), the IC50 in assay [2] was determined as 3.8 nM; in assay [3] it was 2070 nM. Besides, the Ratio IC50 in assay [5] was found to be 544.

`CC[C@H](C)[C@@H]1NC(=O)[C@H](CCC(=O)O)NC(=O)[C@@H]2CCCN2C(=O)[C@H](Cc2cnc[nH]2)NC(=O)[C@H](CC(=O)O)NC(=O)[C@H](C(C)C)NC(=O)[C@H](CC(C)C)NC(=O)[C@@H]2CSSC[C@H](NC(=O)CN)C(=O)N[C@@H](CSSC[C@@H](C(N)=O)NC1=O)C(=O)N[C@@H](CO)C(=O)N[C@@H](Cc1cnc[nH]1)C(=O)N1CCC[C@H]1C(=O)N[C@@H](C)C(=O)N2` (H-GCCSHPACLVDHPEIC-NH2; disulfide 2-8, 3-16): the IC50 in assay [2] came to 3.2 nM; in assay [3], 325 nM. Also, the Ratio IC50 in assay [5] was determined as 102.

For `CC[C@H](C)[C@@H]1NC(=O)[C@H](CCC(=O)O)NC(=O)[C@@H]2CCCN2C(=O)[C@H](Cc2cnc[nH]2)NC(=O)[C@H](CC(=O)O)NC(=O)[C@H](C)NC(=O)[C@H](CC(N)=O)NC(=O)[C@@H]2CSSC[C@H](NC(=O)CN)C(=O)N[C@@H](CSSC[C@@H](C(N)=O)NC1=O)C(=O)N[C@@H](CO)C(=O)N[C@@H](Cc1cnc[nH]1)C(=O)N1CCC[C@H]1C(=O)N[C@@H](C)C(=O)N2` (H-GCCSHPACNADHPEIC-NH2; disulfide 2-8, 3-16), the Ratio IC50 worked out at 4.5 in assay [1], 0.036 in assay [4], 4.4 in assay [5] and 1.1 in assay [6]. The IC50 in assay [2] came to 71 nM; in assay [3], 309 nM; in assay [7], 2500 nM.

For the compound `CC[C@H](C)[C@@H]1NC(=O)[C@H](CCC(=O)O)NC(=O)[C@@H]2CCCN2C(=O)[C@H](Cc2cnc[nH]2)NC(=O)[C@H](C)NC(=O)[C@H](C(C)C)NC(=O)[C@H](CC(N)=O)NC(=O)[C@@H]2CSSC[C@H](NC(=O)CN)C(=O)N[C@@H](CSSC[C@@H](C(N)=O)NC1=O)C(=O)N[C@@H](CO)C(=O)N[C@@H](Cc1cnc[nH]1)C(=O)N1CCC[C@H]1C(=O)N[C@@H](C)C(=O)N2` (H-GCCSHPACNVAHPEIC-NH2; disulfide 2-8, 3-16), the Ratio IC50 in assay [1] is 0.8; in assay [4], -1.39; in assay [5], 5.7; in assay [6], 0.2. Besides, the half-inhibitory concentration (IC50) in assay [2] stood at 12 nM; in assay [3], 67.9 nM; in assay [7], 94 nM.

In the case of `CC[C@H](C)[C@@H]1NC(=O)[C@H](CCC(=O)O)NC(=O)[C@@H]2CCCN2C(=O)[C@H](C)NC(=O)[C@H](CC(=O)O)NC(=O)[C@H](C(C)C)NC(=O)[C@H](CC(N)=O)NC(=O)[C@@H]2CSSC[C@H](NC(=O)CN)C(=O)N[C@@H](CSSC[C@@H](C(N)=O)NC1=O)C(=O)N[C@@H](CO)C(=O)N[C@@H](Cc1cnc[nH]1)C(=O)N1CCC[C@H]1C(=O)N[C@@H](C)C(=O)N2` (H-GCCSHPACNVDAPEIC-NH2; disulfide 2-8, 3-16), the IC50 in assay [2] is greater than 10000 nM; in assay [3] it was greater than 10000 nM; in assay [7], 670000 nM. Besides, the Ratio IC50 in assay [4] came to 2.46.

For `CC[C@H](C)[C@@H]1NC(=O)[C@H](CCC(=O)O)NC(=O)[C@H](C)NC(=O)[C@H](Cc2cnc[nH]2)NC(=O)[C@H](CC(=O)O)NC(=O)[C@H](C(C)C)NC(=O)[C@H](CC(N)=O)NC(=O)[C@@H]2CSSC[C@H](NC(=O)CN)C(=O)N[C@@H](CSSC[C@@H](C(N)=O)NC1=O)C(=O)N[C@@H](CO)C(=O)N[C@@H](Cc1cnc[nH]1)C(=O)N1CCC[C@H]1C(=O)N[C@@H](C)C(=O)N2` (H-GCCSHPACNVDHAEIC-NH2; disulfide 2-8, 3-16), the Ratio IC50 worked out at 13 in assay [1], 0.51 in assay [4], 2.7 in assay [5] and 1.9 in assay [6]. Moreover, the figures for the IC50 in assay [2], in assay [3] and in assay [7] were 202 nM, 543 nM and 7500 nM, respectively.
